In patent US20260085053A1, “BENZOFURAN DERIVATIVES AS SIK INHIBITORS AND THE USE THEREOF” (BEONE MEDICINES I GMBH, priority 2023, published 2026):

Key:
[1] = molecular target: T1, SIK3 kinase (aa59-365, Thermo Fisher) (Homo sapiens, UniProt Q9Y2K2); experiment: Biochemical activities determination for SIK3 protein (TR-FRET); settings: 125 uM ATP, 0.5 μM STK1 substrate
T1 construct: SIK3 kinase (aa59-365, Thermo Fisher); purchased Thermo Fisher
Protocol: 3. Biochemical Activities Determination for SIK3 Protein
Compounds were tested for inhibition of SIK3 kinase (aa59-365, Thermo Fisher) in assays based on the time-resolved fluorescence-resonance energy transfer (TR-FRET) methodology. The assays were carried out in 384-well low volume white plates in a reaction mixture containing SIK3 kinase, 125 uM ATP, 0.5 μM STK1 substrate and 0-10 μM compound in buffer containing 25 mM Tris, 0.01% Trition X-100, 0.5 mM EGTA, 5 mM MgCl2, 2.5 mM DTT, PH=7.5. The kinase was incubated with compound for 60 minutes at room temperature and the reaction was initiated by the addition of ATP and STK1 substrate. After reaction at room temperature for 180 minutes, an equal volume of stop/detection solution was added according to the manufacture's instruction (CisBio Bioassays). The stop/detection solution contained STK Antibody-Cryptate and XL665-conjugated streptavidin (Cat: 62ST1PEC, Cisbio) in Detection Buffer (Cat: 62SDBRDF, Cisbio). Plates were sealed and incubated at room temperature for overnight, and the TR-FRET signals (ratio of fluorescence emission at 665 nm over emission at 620 nm with excitation at 337 nm wavelength) were recorded on a PHERAstar FS plate reader (BMG Labtech). Phosphorylation of STK1 substrate led to the binding of STK Antibody-Cryptate to the biotinylated STK1 substrate, which places fluorescent donor (Eu^3+ crypate) in close proximity to the accepter (Streptavidin-XL665), thus resulting in a high degree of fluorescence resonance energy transfer from the donor fluorophore (at 620 nm) to the acceptor fluorophore (at 665 nm). […] The IC50 for each compound was derived from fitting the data to the four-parameter logistic equation by Dotmatics.

[2] = molecular target: T2, SIK1 kinase (aa1-303, Thermo Fisher) (Homo sapiens, UniProt P57059); experiment: Biochemical activities determination for SIK1 protein (TR-FRET); settings: 110 uM ATP, 0.5 μM STK1 substrate
T2 construct: SIK1 kinase (aa1-303, Thermo Fisher); purchased Thermo Fisher
Protocol: 1. Biochemical Activities Determination for SIK1 Protein
(§1) Compounds were tested for inhibition of SIK1 kinase (aa1-303, Thermo Fisher) in assays based on the time-resolved fluorescence-resonance energy transfer (TR-FRET) methodology. The assays were carried out in 384-well low volume white plates in a reaction mixture containing SIK1 kinase, 110 uM ATP, 0.5 μM STK1 substrate and 0-10 μM compound in buffer containing 25 mM Tris, 0.01% Trition X-100, 0.5 mM EGTA, 5 mM MgCl2, 2.5 mM DTT, pH=7.5. The kinase was incubated with compounds for 60 minutes at room temperature and the reaction was initiated by the addition of ATP and STK1 substrate. After reaction at room temperature for 180 minutes, an equal volume of stop/detection solution was added according to the manufacture's instruction (CisBio Bioassays). The stop/detection solution contained STK Antibody-Cryptate and XL665-conjugated streptavidin (Cat: 62ST1PEC, Cisbio) in Detection Buffer (Cat: 62SDBRDF, Cisbio). Plates were sealed and incubated at room temperature for overnight, and the TR-FRET signals (ratio of fluorescence emission at 665 nm over emission at 620 nm with excitation at 337 nm wavelength) were recorded on a PHERAstar FS plate reader (BMG Labtech). Phosphorylation of STK1 substrate led to the binding of STK Antibody-Cryptate to the biotinylated SIK1 substrate, which places fluorescent donor (Eu^3+ crypate) in close proximity to the accepter (Streptavidin-XL665), thus resulting in a high degree of fluorescence resonance energy transfer from the donor fluorophore (at 620 nm) to the acceptor fluorophore (at 665 nm). […] The IC50 for each compound was derived from fitting the data to the four-parameter logistic equation by Dotmatics.

[3] = molecular target: T3, SIK2 kinase (full length, Thermo Fisher) (Homo sapiens, UniProt Q9H0K1); experiment: Biochemical activities determination for SIK2 protein (TR-FRET); settings: 80 uM ATP, 0.5 μM substrate
T3 construct: SIK2 kinase (full length, Thermo Fisher); purchased Thermo Fisher
Protocol: 2. Biochemical Activities Determination for SIK2 Protein
as §1, with “of SIK2” for “of SIK1”, “kinase (full length,” for “kinase (aa1-303,”, “containing SIK2” for “containing SIK1”, “kinase, 80” for “kinase, 110”, “μM […]” for “μM STK1”, “biotinylated STK1” for “biotinylated SIK1”

T2 sequence (P57059 1-303): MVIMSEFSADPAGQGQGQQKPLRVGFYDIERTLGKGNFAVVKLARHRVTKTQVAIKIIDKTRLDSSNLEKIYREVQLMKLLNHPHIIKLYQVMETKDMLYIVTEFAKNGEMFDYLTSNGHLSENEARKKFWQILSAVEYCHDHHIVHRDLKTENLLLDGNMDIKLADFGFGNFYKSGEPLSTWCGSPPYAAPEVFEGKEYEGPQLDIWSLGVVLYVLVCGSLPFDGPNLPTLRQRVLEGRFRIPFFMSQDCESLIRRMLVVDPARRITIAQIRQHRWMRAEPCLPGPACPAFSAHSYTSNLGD
T1 sequence (Q9Y2K2 59-365): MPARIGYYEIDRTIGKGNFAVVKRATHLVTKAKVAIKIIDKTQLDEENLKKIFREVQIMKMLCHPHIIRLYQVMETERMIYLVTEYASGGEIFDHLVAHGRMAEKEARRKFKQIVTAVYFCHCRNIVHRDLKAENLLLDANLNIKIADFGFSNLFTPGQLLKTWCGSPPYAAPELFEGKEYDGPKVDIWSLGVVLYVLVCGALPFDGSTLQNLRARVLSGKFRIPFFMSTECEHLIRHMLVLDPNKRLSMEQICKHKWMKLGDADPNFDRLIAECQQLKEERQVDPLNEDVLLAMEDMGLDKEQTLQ
T3 sequence (Q9H0K1 whole entry): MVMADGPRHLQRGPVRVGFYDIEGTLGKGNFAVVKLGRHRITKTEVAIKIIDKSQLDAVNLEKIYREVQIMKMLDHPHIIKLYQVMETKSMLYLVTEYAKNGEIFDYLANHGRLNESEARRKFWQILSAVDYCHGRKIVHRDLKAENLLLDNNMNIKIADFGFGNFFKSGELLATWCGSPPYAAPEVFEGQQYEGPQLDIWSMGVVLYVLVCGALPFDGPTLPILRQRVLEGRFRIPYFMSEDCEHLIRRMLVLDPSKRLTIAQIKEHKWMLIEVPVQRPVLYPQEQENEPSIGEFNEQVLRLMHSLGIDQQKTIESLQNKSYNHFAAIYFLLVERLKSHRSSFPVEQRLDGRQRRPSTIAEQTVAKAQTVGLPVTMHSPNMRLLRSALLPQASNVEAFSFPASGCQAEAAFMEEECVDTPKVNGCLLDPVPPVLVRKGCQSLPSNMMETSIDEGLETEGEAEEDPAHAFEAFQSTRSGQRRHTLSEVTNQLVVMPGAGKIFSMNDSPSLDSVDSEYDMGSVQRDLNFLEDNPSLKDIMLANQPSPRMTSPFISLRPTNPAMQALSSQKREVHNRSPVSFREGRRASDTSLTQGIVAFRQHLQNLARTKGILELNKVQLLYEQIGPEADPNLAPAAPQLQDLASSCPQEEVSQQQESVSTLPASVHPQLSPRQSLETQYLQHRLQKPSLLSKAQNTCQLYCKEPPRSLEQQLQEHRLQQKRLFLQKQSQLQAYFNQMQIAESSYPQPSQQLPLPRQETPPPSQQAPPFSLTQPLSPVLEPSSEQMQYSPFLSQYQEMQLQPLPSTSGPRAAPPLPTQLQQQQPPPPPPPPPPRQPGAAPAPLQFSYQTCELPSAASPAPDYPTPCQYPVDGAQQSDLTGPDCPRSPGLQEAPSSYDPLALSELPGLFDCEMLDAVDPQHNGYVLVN

IC50 [1] | IC50 [2] | IC50 [3] | Structure (SMILES)
161 nM | 1220 nM | 18 nM | COc1cc(-c2coc3cc(OCCN4CCCC4)ccc23)cc(OC(F)F)c1C(=O)NC1CCCCC1N (racemic) [Compound 124, N-(2-aminocyclohexyl)-2-(difluoromethoxy)-6-methoxy-4-(6-(2-(pyrrolidin-1-yl)ethoxy)benzofuran-3-yl)benzamide]
359 nM | > 10000 nM | 103 nM | COc1cc(-c2coc3cc(OCCN4CCCC4)ccc23)cc(OC(F)F)c1C(=O)NC1CCCC1N (racemic) [Compound 130, N-(2-aminocyclopentyl)-2-(difluoromethoxy)-6-methoxy-4-(6-(2-(pyrrolidin-1-yl)ethoxy)benzofuran-3-yl)benzamide]
1560 nM | > 10000 nM | 653 nM | COc1cc(-c2coc3cc(OCCN4CCCC4)ccc23)cc(OC(F)F)c1C(=O)NC1CC1N (racemic) [Compound 131, N-(2-aminocyclopropyl)-2-(difluoromethoxy)-6-methoxy-4-(6-(2-(pyrrolidin-1-yl)ethoxy)benzofuran-3-yl)benzamide]
174 nM | 6040 nM | 95 nM | COc1cc(-c2coc3cc(-c4cn(C)nc4C)ccc23)cc2c1C(=O)N(CC(F)(F)F)CC2 [Compound 15, 6-(6-(1,3-dimethyl-1H-pyrazol-4-yl)benzofuran-3-yl)-8-methoxy-2-(2,2,2-trifluoroethyl)-3,4-dihydroisoquinolin-1 (2H)-one]
5840 nM | > 10000 nM | 3350 nM | COc1cc(-c2coc3cc(-c4cn(C)nc4C(F)(F)F)ccc23)cc2c1C(=O)N(CC(F)(F)F)CC2 [Compound 16, 8-methoxy-6-(6-(1-methyl-3-(trifluoromethyl)-1H-pyrazol-4-yl)benzofuran-3-yl)-2-(2,2,2-trifluoroethyl)-3,4-dihydroisoquinolin-1 (2H)-one]
79 nM | 2310 nM | 28 nM | COc1cc(-c2coc3cc(-c4cn(C)nn4)ccc23)cc2c1C(=O)N(CC(F)(F)F)CC2 [Compound 17, 8-methoxy-6-(6-(1-methyl-1H-1,2,3-triazol-4-yl)benzofuran-3-yl)-2-(2,2,2-trifluoroethyl)-3,4-dihydroisoquinolin-1 (2H)-one]
237 nM | > 10000 nM | 214 nM | COc1cc(-c2coc3cc(-c4cn(C)nc4C#N)ccc23)cc2c1C(=O)N(CC(F)(F)F)CC2 [Compound 18, 4-(3-(8-methoxy-1-oxo-2-(2,2,2-trifluoroethyl)-1,2,3,4-tetrahydroisoquinolin-6-yl)benzofuran-6-yl)-1-methyl-1H-pyrazole-3-carbonitrile]
132 nM | 3130 nM | 80 nM | COc1cc(-c2coc3cc(-c4cn(C)nc4OC)ccc23)cc2c1C(=O)N(CC(F)(F)F)CC2 [Compound 19, 8-methoxy-6-(6-(3-methoxy-1-methyl-1H-pyrazol-4-yl)benzofuran-3-yl)-2-(2,2,2-trifluoroethyl)-3,4-dihydroisoquinolin-1 (2H)-one]
14 nM | 362 nM | 12 nM | COc1cc(-c2coc3cc(-c4cnn(C)c4)ccc23)cc2c1C(=O)N(CC#N)CC2 [Compound 20, 2-(8-methoxy-6-(6-(1-methyl-1H-pyrazol-4-yl)benzofuran-3-yl)-1-oxo-3,4-dihydroisoquinolin-2 (1H)-yl) acetonitrile]
15 nM | 289 nM | 11 nM | Cn1cc(-c2ccc3c(-c4cc5c(c(OC(F)F)c4)C(=O)N(CC#N)CC5)coc3c2)cn1 [Compound 21, 2-(8-(difluoromethoxy)-6-(6-(1-methyl-1H-pyrazol-4-yl)benzofuran-3-yl)-1-oxo-3,4-dihydroisoquinolin-2 (1H)-yl) acetonitrile]
127 nM | 5920 nM | 79 nM | COc1cc(-c2coc3cc(-c4cn(C)nc4F)ccc23)cc2c1C(=O)N(CC(F)(F)F)CC2 [Compound 22, 6-(6-(3-fluoro-1-methyl-1H-pyrazol-4-yl)benzofuran-3-yl)-8-methoxy-2-(2,2,2-trifluoroethyl)-3,4-dihydroisoquinolin-1 (2H)-one]
387 nM | > 10000 nM | 223 nM | COc1cc(-c2coc3cc(-c4cn(C)nc4Cl)ccc23)cc2c1C(=O)N(CC(F)(F)F)CC2 [Compound 23, 6-(6-(3-chloro-1-methyl-1H-pyrazol-4-yl)benzofuran-3-yl)-8-methoxy-2-(2,2,2-trifluoroethyl)-3,4-dihydroisoquinolin-1 (2H)-one]
320 nM | 3340 nM | 281 nM | Cn1cc(-c2ccc3c(-c4cc5c(c(OC(F)F)c4)C(=O)N(CC(N)=O)CC5)coc3c2)cn1 [Compound 24, 2-(8-(difluoromethoxy)-6-(6-(1-methyl-1H-pyrazol-4-yl)benzofuran-3-yl)-1-oxo-3,4-dihydroisoquinolin-2 (1H)-yl) acetamide]
26 nM | 195 nM | 15 nM | COc1cc(-c2coc3cc(-c4cnn(C)c4)ccc23)cc(OC(F)F)c1C(=O)NCC(F)(F)F [Compound 25, 2-(difluoromethoxy)-6-methoxy-4-(6-(1-methyl-1H-pyrazol-4-yl)benzofuran-3-yl)-N-(2,2,2-trifluoroethyl)benzamide]
5 nM | 33 nM | 3.4 nM | COc1cc(-c2coc3cc(-c4cnn(C)c4)ccc23)cc(OC(F)F)c1C(=O)N[C@@H]1C[C@@H]1F [Compound 26, 2-(difluoromethoxy)-N-((1R,2S)-2-fluorocyclopropyl)-6-methoxy-4-(6-(1-methyl-1H-pyrazol-4-yl)benzofuran-3-yl)benzamide]
72 nM | 1130 nM | 34 nM | COc1cc(-c2coc3cc(-c4cnn(C)c4)ccc23)cc2c1C(=O)N(C1CC1)CC2 [Compound 27, 2-cyclopropyl-8-methoxy-6-(6-(1-methyl-1H-pyrazol-4-yl)benzofuran-3-yl)-3,4-dihydroisoquinolin-1 (2H)-one]
